Measured values taken from the NIST ThermoML archive (doi:10.1021/je400529k).

Key:
[1] = xn = mol fraction of the nth substance listed; conditions: 101 kPa, Liquid; for viscosity: Capillary tube (Ostwald / Ubbelohde) method; for mass density: Vibrating tube method
[2] = refractive index (Na D-line) (dimensionless); xn = mol fraction of the nth substance listed; conditions: 101 kPa, Liquid, Standard Abbe refractometry

C1C[C@@H]2[C@H]3CC[C@H](C3)[C@@H]2C1 [exo-tetrahydrodicyclopentadiene] + CCCCC1CCCCC1
Conditions	mass density, [1] [kg/m3]	refractive index, [2]	viscosity, [1] [mPa·s]
293.15 K, x1 = 0.1	811.06	1.444	1.391
293.15 K, x1 = 0.1993	822.96	1.4478	1.49
293.15 K, x1 = 0.2997	835.42	1.4521	1.602
293.15 K, x1 = 0.3991	848.2	1.4568	1.732
293.15 K, x1 = 0.5002	861.66	1.4613	1.879
293.15 K, x1 = 0.6005	875.49	1.466	2.044
293.15 K, x1 = 0.7	889.72	1.4712	2.234
293.15 K, x1 = 0.8004	904.57	1.4766	2.446
293.15 K, x1 = 0.8999	919.8	1.4818	2.688
293.15 K, x1 = 1	935.72	1.4874	2.992
298.15 K, x1 = 0.1	807.31	–	1.279
298.15 K, x1 = 0.1993	819.19	–	1.367
298.15 K, x1 = 0.2997	831.63	–	1.467
298.15 K, x1 = 0.3991	844.39	–	1.584
298.15 K, x1 = 0.5002	857.83	–	1.715
298.15 K, x1 = 0.6005	871.64	–	1.863
298.15 K, x1 = 0.7	885.86	–	2.032
298.15 K, x1 = 0.8004	900.7	–	2.224
298.15 K, x1 = 0.8999	915.95	–	2.438
298.15 K, x1 = 1	931.84	–	2.71
303.15 K, x1 = 0.1	803.53	1.4393	1.181
303.15 K, x1 = 0.1993	815.39	1.4435	1.261
303.15 K, x1 = 0.2997	827.82	1.448	1.351
303.15 K, x1 = 0.3991	840.57	1.4522	1.456
303.15 K, x1 = 0.5002	853.98	1.457	1.574
303.15 K, x1 = 0.6005	867.78	1.4619	1.707
303.15 K, x1 = 0.7	881.99	1.4669	1.858
303.15 K, x1 = 0.8004	896.81	1.4718	2.031
303.15 K, x1 = 0.8999	912.05	1.4774	2.223
303.15 K, x1 = 1	927.94	1.4831	2.467
308.15 K, x1 = 0.1	799.75	–	1.096
308.15 K, x1 = 0.1993	811.6	–	1.168
308.15 K, x1 = 0.2997	824.01	–	1.249
308.15 K, x1 = 0.3991	836.73	–	1.344
308.15 K, x1 = 0.5002	850.13	–	1.451
308.15 K, x1 = 0.6005	863.92	–	1.571
308.15 K, x1 = 0.7	878.11	–	1.707
308.15 K, x1 = 0.8004	892.92	–	1.862
308.15 K, x1 = 0.8999	908.14	–	2.036
308.15 K, x1 = 1	924.02	–	2.255
313.15 K, x1 = 0.1	795.96	1.435	1.02
313.15 K, x1 = 0.1993	807.79	1.4391	1.085
313.15 K, x1 = 0.2997	820.18	1.4435	1.159
313.15 K, x1 = 0.3991	832.89	1.448	1.245
313.15 K, x1 = 0.5002	846.27	1.4524	1.342
313.15 K, x1 = 0.6005	860.05	1.4575	1.451
313.15 K, x1 = 0.7	874.22	1.4626	1.573
313.15 K, x1 = 0.8004	889.02	1.4677	1.715
313.15 K, x1 = 0.8999	904.23	1.4728	1.872
313.15 K, x1 = 1	920.11	1.4786	2.069
318.15 K, x1 = 0.1	792.17	–	0.952
318.15 K, x1 = 0.1993	803.98	–	1.012
318.15 K, x1 = 0.2997	816.35	–	1.079
318.15 K, x1 = 0.3991	829.04	–	1.157
318.15 K, x1 = 0.5002	842.41	–	1.246
318.15 K, x1 = 0.6005	856.16	–	1.345
318.15 K, x1 = 0.7	870.32	–	1.456
318.15 K, x1 = 0.8004	885.11	–	1.585
318.15 K, x1 = 0.8999	900.32	–	1.727
318.15 K, x1 = 1	916.18	–	1.907
